MIC data for 10 molecules are collected here from US5371090A, “Naphthyridonecarboxylic acid derivatives” (Bayer Aktiengesellschaft, priority 1991, dated 1994).

Experiment in all cases: MIC on Iso-Sensitest agar, serial dilution
Holding throughout (format): cell-based

One assay relates to E. coli. The settings on record: Escherichia coli, 20 h, 37° C., approx. 20 hours. How it is done: (§1) The minimum inhibitory concentrations (MICs) were determined on Iso-Sensitest agar (Oxoid) using serial dilution methods. For each test substance a series of agar plates was prepared which contained concentrations of the active substance which decreased as the dilution factor was doubled. The agar plates were inoculated by means of a multipoint inoculator (Denley). The inocula used were overnight cultures of the pathogens which had previously been diluted to such an extent that each inoculation point contained approx. 10^4 colony-forming units. The inoculated agar plates were incubated at 37° C., and the growth of the germs was read off after approx. 20 hours.

The next assay relates to Enterococcus faecalis. The protocol:
as §1

A further assay has as its system Klebsiella sp. How it is done: as §1
Another assay concerns Morganella morg. The protocol:
as §1

In a further assay the test system is Providencia spp. The protocol: as §1
The subject of the next assay is Pseudomonas aeruginosa. How it is done:
as §1, with “hours. The MIC value (μg/ml) indicates the lowest concentration of active compound at which no growth could be observed with the naked eye.” for “hours.”

The next assay concerns Staphylococcus aureus. Particulars: 37° C., approx. 20 hours. How it is done: as §1, with “hours. The MIC value (μg/ml) indicates the lowest concentration of active compound at which no growth could be observed with the naked eye.” for “hours.”
The mark [1] stands for this setting: Enterococcus faecalis, 20 h, Enterococcus faecalis strain 9790, 37° C., approx. 20 hours, read-out: MIC.
The mark [2] stands for this setting: Enterococcus faecalis, 20 h, Enterococcus faecalis strain 27101, 37° C., approx. 20 hours, read-out: MIC.
Where [3] appears, read: Klebsiella sp. strain 8085, 37° C., approx. 20 hours, read-out: MIC.
The mark [4] stands for this setting: Morganella morg. strain 932, 37° C., approx. 20 hours, read-out: MIC.
Where [5] appears, read: Providencia spp. strain 12012, 37° C., approx. 20 hours, read-out: MIC.
[6] abbreviates: Pseudomonas aeruginosa strain Walter, 37° C., approx. 20 hours, read-out: MIC.
Setting [7] is: Staphylococcus aureus strain 133.
Where [8] appears, read: Staphylococcus aureus strain 1756, read-out: MIC.
The mark [9] stands for this setting: Enterococcus faecalis, 20 h, Enterococcus faecalis strain 9790, 37° C., approx. 20 hours.
Where [10] appears, read: Staphylococcus aureus, 20 h, Staphylococcus aureus strain 133.
The mark [11] stands for this setting: Enterococcus faecalis, 20 h, Enterococcus faecalis strain 27101, 37° C., approx. 20 hours.

Values after ≈ are worked out from the molar mass of the structure shown. Like-named read-outs stand apart in the source and are kept apart here.

As for `O=C(O)c1cn(C2CC2)c2cc(N3Cc4ccncc4C3)c(F)cc2c1=O` [Example 4, 1-cyclopropyl-7-(2,3-dihydro-1H-pyrrolo[3,4-c]pyridin-2-yl)-6-fluoro-1,4-dihydro-4-oxo-3-quinolinecarboxylic acid], the MIC against E. coli (E. coli strain 455/7) turned out to be 128 µg/mL (≈ 350 µM); in the assay on E. coli (E. coli strain Neumann), 0.06 µg/mL (≈ 0.164 µM); with Enterococcus faecalis (setting [1]), 0.25 µg/mL (≈ 0.684 µM); in the assay with Enterococcus faecalis (setting [2]), 0.25 µg/mL (≈ 0.684 µM); with Klebsiella sp. (setting [3]), 0.25 µg/mL (≈ 0.684 µM); with Morganella morg. (setting [4]) it was 0.5 µg/mL (≈ 1.37 µM). Moreover, the MIC in the assay on Providencia spp. (setting [5]) amounted to 0.5 µg/mL (≈ 1.37 µM); with Pseudomonas aeruginosa (setting [6]) it was 4 µg/mL (≈ 10.9 µM); against Staphylococcus aureus (setting [7]) it was 0.06 µg/mL (≈ 0.164 µM); in the assay with Staphylococcus aureus (setting [8]), 0.06 µg/mL (≈ 0.164 µM).
In the case of `CN1CCC2=C(C1)CN(c1c(F)cc3c(=O)c(C(=O)O)cn(C4CC4)c3c1Cl)C2` [Example 8, 8-chloro-1-cyclopropyl-6-fluoro-1,4-dihydro-7-(5-methyl-2,3,4,5,6,7-hexahydro-1H-pyrrolo[3,4-c]pyridin-2-yl)-4-oxo-3-quinolinecarboxylic acid], the MIC against E. coli (E. coli strain 455/7) came out at 1 µg/mL (≈ 2.39 µM); against E. coli (E. coli strain Neumann) it was 0.03 µg/mL (≈ 0.0718 µM); in the assay with Enterococcus faecalis (setting [1]) it was 0.06 µg/mL (≈ 0.144 µM); in the assay on Enterococcus faecalis (setting [2]) it was 0.06 µg/mL (≈ 0.144 µM); with Klebsiella sp. (setting [3]), 0.06 µg/mL (≈ 0.144 µM); in the assay with Morganella morg. (setting [4]) it was 0.06 µg/mL (≈ 0.144 µM). Further, the MIC stood at 0.13 µg/mL (≈ 0.311 µM) in the assay on Providencia spp. (setting [5]); 0.5 µg/mL (≈ 1.2 µM) against Pseudomonas aeruginosa (Pseudomonas aeruginosa, 20 h); 0.03 µg/mL (≈ 0.0718 µM) in the assay with Staphylococcus aureus (setting [7]); 0.03 µg/mL (≈ 0.0718 µM) with Staphylococcus aureus (setting [8]).
Turning to `Cc1c(F)c(N2CC3=C(CN(C)CC3)C2)cc2c1c(=O)c(C(=O)O)cn2-c1ccc(F)cc1F` [Example 9, 1-(2,4-difluorophenyl)-6-fluoro-1,4-dihydro-5-methyl-7-(5-methyl-2,3,4,5,6,7-hexahydro-1H-pyrrolo[3,4-c]-pyridin-2-yl)-4-oxo-3-quinolinecarboxylic acid], the MIC in the assay on E. coli (E. coli strain 455/7) is 128 µg/mL (≈ 273 µM); in the assay with E. coli (E. coli strain Neumann) it was 0.25 µg/mL (≈ 0.533 µM); in the assay with Enterococcus faecalis (Enterococcus faecalis, 20 h) it was 0.5 µg/mL (≈ 1.07 µM); against Enterococcus faecalis (setting [9]), 0.5 µg/mL (≈ 1.07 µM); with Klebsiella sp. (Klebsiella, 20 h), 0.5 µg/mL (≈ 1.07 µM); with Morganella morg. (Morganella, 20 h) it was 0.5 µg/mL (≈ 1.07 µM). Besides, the MIC came out at 0.5 µg/mL (≈ 1.07 µM) against Providencia spp. (Providencia, 20 h); 128 µg/mL (≈ 273 µM) with Pseudomonas aeruginosa (setting [6]); 0.06 µg/mL (≈ 0.128 µM) in the assay with Staphylococcus aureus (setting [7]); 0.06 µg/mL (≈ 0.128 µM) in the assay on Staphylococcus aureus (setting [8]).
In the case of `O=C(O)c1cn(C2CC2)c2nc(N3Cc4cccnc4C3)c(F)cc2c1=O` [Example 3], the MIC in the assay on E. coli (E. coli strain 455/7) amounted to 128 µg/mL (≈ 349 µM); in the assay with Enterococcus faecalis (Enterococcus faecalis, 20 h) it was 0.5 µg/mL (≈ 1.36 µM); with Enterococcus faecalis (setting [9]), 0.5 µg/mL (≈ 1.36 µM); in the assay with Klebsiella sp. (Klebsiella, 20 h), 0.5 µg/mL (≈ 1.36 µM); in the assay with Morganella morg. (Morganella, 20 h), 0.25 µg/mL (≈ 0.682 µM); against Providencia spp. (Providencia, 20 h), 0.5 µg/mL (≈ 1.36 µM). The MIC in the assay with Pseudomonas aeruginosa (Pseudomonas aeruginosa, 20 h) was determined as 2 µg/mL (≈ 5.46 µM); in the assay with Staphylococcus aureus (setting [10]) it was 0.25 µg/mL (≈ 0.682 µM); in the assay on Staphylococcus aureus (Staphylococcus aureus, 20 h, Staphylococcus aureus strain 1756), 0.25 µg/mL (≈ 0.682 µM).
On to `O=C(O)c1cn(C2CC2)c2cc(N3Cc4cccnc4C3)c(F)cc2c1=O` [Example 5, 1-cyclopropyl-7-(5,7-dihydro-6H-pyrrolo[3,4-b]-pyridin-6-yl)-6-fluoro-1,4-dihydro-4-oxo-3-quinolinecarboxylic acid], for which the MIC in the assay on E. coli (E. coli strain 455/7) stood at 128 µg/mL (≈ 350 µM); against E. coli (E. coli strain Neumann) it was 0.13 µg/mL (≈ 0.356 µM); with Enterococcus faecalis (setting [1]) it was 0.25 µg/mL (≈ 0.684 µM); in the assay on Enterococcus faecalis (setting [2]), 0.25 µg/mL (≈ 0.684 µM); against Klebsiella sp. (Klebsiella, 20 h), 1 µg/mL (≈ 2.74 µM); in the assay on Morganella morg. (setting [4]), 0.13 µg/mL (≈ 0.356 µM). In addition, the MIC was found to be 0.5 µg/mL (≈ 1.37 µM) in the assay on Providencia spp. (setting [5]), 128 µg/mL (≈ 350 µM) in the assay with Pseudomonas aeruginosa (setting [6]), 0.13 µg/mL (≈ 0.356 µM) against Staphylococcus aureus (setting [7]) and 0.13 µg/mL (≈ 0.356 µM) with Staphylococcus aureus (setting [8]).
In the case of `O=C(O)c1cn(C2CC2)c2nc(N3Cc4ccncc4C3)c(F)cc2c1=O` [Example 6, 1-cyclopropyl-7-(2,3-dihydro-1H-pyrrolo[3,4-c]pyridin-2-yl]-6-fluoro-1,4-dihydro-4-oxo-1,8-naphthyridine-3-carboxylic acid], the MIC with E. coli (E. coli strain 455/7) worked out at 128 µg/mL (≈ 349 µM); against E. coli (E. coli strain Neumann), 0.13 µg/mL (≈ 0.355 µM); against Enterococcus faecalis (Enterococcus faecalis, 20 h) it was 0.5 µg/mL (≈ 1.36 µM); in the assay with Enterococcus faecalis (setting [9]) it was 0.5 µg/mL (≈ 1.36 µM); with Klebsiella sp. (Klebsiella, 20 h) it was 0.5 µg/mL (≈ 1.36 µM); in the assay on Morganella morg. (setting [4]), 0.25 µg/mL (≈ 0.682 µM). The MIC with Providencia spp. (setting [5]) stood at 1 µg/mL (≈ 2.73 µM); in the assay with Pseudomonas aeruginosa (setting [6]), 16 µg/mL (≈ 43.7 µM); with Staphylococcus aureus (setting [7]), 0.25 µg/mL (≈ 0.682 µM); in the assay on Staphylococcus aureus (setting [8]), 0.25 µg/mL (≈ 0.682 µM).
Turning to `Cl.O=C(O)c1cn(C2CC2)c2c(F)c(N3Cc4cccnc4C3)c(F)cc2c1=O` [Example 1B, 1-cyclopropyl-7-(5,7-dihydro-6H-pyrrolo[3,4-b]pyridin-6-yl)-6,8-difluoro-1,4-dihydro-4-oxo-3-quinolinecarboxylic acid hydrochloride], the MIC is 8 µg/mL in the assay with E. coli (E. coli strain 455/7); 0.01 µg/mL with Enterococcus faecalis (Enterococcus faecalis strain 27101, 37° C., approx. 20 hours, read-out: MIC); 0.06 µg/mL with Enterococcus faecalis (setting [1]); 0.25 µg/mL in the assay with Klebsiella sp. (Klebsiella, 20 h); 0.25 µg/mL with Providencia spp. (Providencia, 20 h); 4 µg/mL with Pseudomonas aeruginosa (setting [6]). For the same molecule, the MIC with Staphylococcus aureus (setting [7]) and in the assay with Staphylococcus aureus (setting [8]) was 0.02 µg/mL in each case.
For the molecule `CN1CCC2=C(C1)CN(c1c(F)cc3c(=O)c(C(=O)O)cn(C4CC4)c3c1F)C2.Cl` [Example 7B, 1-cyclopropyl-6,8-difluoro-1,4-dihydro-7-(5-methyl-2,3,4,5,6,7-hexahydro-1H-pyrrolo[3,4-c]-pyridin-2-yl)-4-oxo-3-quinolinecarboxylic acid hydrochloride], the minimum inhibitory concentration (MIC) against E. coli (E. coli strain 455/7) was found to be 2 µg/mL; in the assay with E. coli (E. coli strain Neumann) it was 0.02 µg/mL; with Klebsiella sp. (setting [3]), 0.06 µg/mL; in the assay on Morganella morg. (setting [4]), 0.03 µg/mL; with Pseudomonas aeruginosa (Pseudomonas aeruginosa, 20 h), 1 µg/mL; against Staphylococcus aureus (setting [7]), 0.06 µg/mL. The minimal inhibitory concentration (MIC) in the assay with Staphylococcus aureus (setting [8]) worked out at 0.06 µg/mL.
On to `Nc1cccc2c1CN(c1c(F)cc3c(=O)c(C(=O)O)cn(C4CC4)c3c1F)C2` [Ref., 7-(4-amino-1,3-dihydro-isoindol-2-yl)-1-cyclopropyl-6,8-difluoro-1,4-dihydro-4-oxo-3-quinolinecarboxylic acid, reference compound], for which the MIC was 128 µg/mL (≈ 322 µM) in the assay on E. coli (E. coli strain 455/7); 0.5 µg/mL (≈ 1.26 µM) in the assay with E. coli (E. coli strain Neumann); 1 µg/mL (≈ 2.52 µM) with Enterococcus faecalis (setting [9]); 0.5 µg/mL (≈ 1.26 µM) in the assay with Enterococcus faecalis (setting [11]); 4 µg/mL (≈ 10.1 µM) with Klebsiella sp. (setting [3]); 1 µg/mL (≈ 2.52 µM) in the assay on Morganella morg. (Morganella, 20 h). Moreover, the MIC in the assay with Providencia spp. (Providencia, 20 h) stood at 1 µg/mL (≈ 2.52 µM); in the assay on Pseudomonas aeruginosa (setting [6]), 128 µg/mL (≈ 322 µM); against Staphylococcus aureus (setting [7]), 0.03 µg/mL (≈ 0.0755 µM); in the assay on Staphylococcus aureus (setting [8]), 0.03 µg/mL (≈ 0.0755 µM).
Consider `O=C(O)c1cn(C2CC2)c2c(F)c(N3Cc4ccncc4C3)c(F)cc2c1=O` [Example 2, 1-cyclopropyl-7-(2,3-dihydro-1H-pyrrolo[3,4-c]pyridin-2-yl)-6,8-difluoro-1,4-dihydro-4-oxo-3-quinolinecarboxylic acid], for which the minimum inhibitory concentration (MIC) was determined as 8 µg/mL (≈ 20.9 µM) in the assay on E. coli (E. coli strain 455/7); 0.06 µg/mL (≈ 0.157 µM) against E. coli (E. coli strain Neumann); 0.25 µg/mL (≈ 0.652 µM) in the assay on Enterococcus faecalis (setting [11]); 0.25 µg/mL (≈ 0.652 µM) in the assay with Providencia spp. (Providencia, 20 h); 1 µg/mL (≈ 2.61 µM) in the assay with Pseudomonas aeruginosa (Pseudomonas aeruginosa, 20 h); 0.06 µg/mL (≈ 0.157 µM) in the assay with Staphylococcus aureus (setting [8]). Also, the MIC against Staphylococcus aureus (setting [10]) was determined as 0.25 µg/mL (≈ 0.652 µM).
